US20220291238A1, “Methods for Predicting Treatment Response in Ulcerative Colitis” (Janssen Biotech, Inc., priority 2021, published 2022)

Experiments:
human colonoids = assay: Cytokine treatment of human colonoids, RNA-seq; format: cell-based; conditions: human colonoids, 24 hours
Description: All patients provided informed consent (NRES/IRAS id:15/LO/1998). Subsequent establishment of human colonoids was performed as previously described by Sato et al (48). The crypts were cultured in growth medium containing advanced Dulbecco's modified Eagle's medium/F12, penicillin/streptomycin (100 units/mL), 10 mM HEPES, 2 mM Glutamax, supplements N2 (1×) and B27 (1×), 50 ng/mL mouse epidermal growth factor (all from Life Technologies; Carlsbad, Calif.), 1 mM N-acetylcysteine (Sigma-Aldrich; St. Louis, Mo.), 50% v/v Wnt3a conditioned medium, 10% v/v R-spondin-1 conditioned medium, 100 ng/mL murine recombinant noggin protein (Peprotech; Rocky Hill, N.J.), 10 nM gastrin (Sigma-Aldrich), 500 nM A83-01 (Bio-techne; Minneapolis, Minn.), 10 μM SB202190 (Sigma-Aldrich) and 10 mM Nicotinamide (Sigma-Aldrich). 10 μM Y-27632 (Sigma-Aldrich) was added to the culture medium for the initial 3 days. Medium was changed every 2 days. […] During the last 24 hours in differentiation medium, human colonoids were treated with human recombinant IL22 (10 ng/mL), IL17A (50 ng/mL), TNFα (10 ng/mL), IFNγ (20 ng/mL), IL13 (10 ng/mL) and IL22 (10 ng/mL)/IL17A (50 ng/mL) combination.
(§1) RNA extraction: Colonoids and LPMC were treated in a similar fashion. Cells were lysed and RNA was extracted using the RNAeasy kit (Qiagen; Hilden, Germany). This step was optimized balancing the effectiveness of elimination of DNA quantified (Qubit dsDNA HS assay kit) versus the loss of quantity of RNA (Qubit RNA BR assay kit). Optimal DNAse I concentration was determined to be ×5 the standard concentration. 500 ng of cDNA was then created using Revertaid cDNA synthesis kit (ThermoFisher) and diluted to a concentration of 6.25 ng/μl. Harvested colonoids were put in Qiazol and then RNA was extracted with the RNAeasy kit (Qiagen) as per manufacturer's guidelines. cDNA was created using the Revertaid cDNA synthesis kit (ThermoFisher).
Library preparation and sequencing: A total amount of 3 μg RNA per sample was used as input material for the RNA sample preparations. Sequencing libraries were generated using NEBNextR Ultra™ RNA Library Prep Kit for IlluminaR (NEB, Ipswich, Mass.) following manufacturer's recommendations and index codes were added to attribute sequences to each sample. Briefly, mRNA was purified from total RNA using poly-T oligo-attached magnetic beads. Fragmentation was carried out using divalent cations under elevated temperature in NEBNext First Strand Synthesis Reaction Buffer (5×). First strand cDNA was synthesized using random hexamer primer and M-MuLV Reverse Transcriptase (RNase H-). Second strand cDNA synthesis was subsequently performed using DNA Polymerase I and RNase H. Remaining overhangs were converted into blunt ends via exonuclease/polymerase activities. After adenylation of 3′ ends of DNA fragments, NEBNext Adaptor with hairpin loop structure were ligated to prepare for hybridization. In order to select cDNA fragments of preferentially 150˜200 bp in length, the library fragments were purified with AMPure XP system (Beckman Coulter, Brea, Calif.). Then 3 μl USER Enzyme (NEB) was used with size-selected, adaptor-ligated cDNA at 37° C. for 15 minutes followed by 5 minutes at 95° C. before PCR. Then PCR was performed with Phusion High-Fidelity DNA polymerase, Universal PCR primers and Index (X) Primer. At last, PCR products were purified (AMPure XP system) and library quality was assessed on the Agilent Bioanalyzer 2100 system. The clustering of the index-coded samples was performed on a cBot Cluster Generation System using HiSeq PE Cluster Kit cBot-HS (Illumina; San Diego, Calif.) according to the manufacturer's instructions. After cluster generation, the paired-end libraries were sequenced on an Illumina HiSeq platform. […]

[1] = tested on: lamina propria mononuclear cells (LPMC); assay: IL23 stimulation of LPMC from UC patients, RNA-seq; format: cell-based, human
Description: Human LPMC isolation: Colonic mucosal biopsies were obtained from UC patients (n=5) with endoscopically active disease (Mayo endoscopic subscore ≥2). LPMCs were isolated using a non-digestion, ‘walk out’ method previously published (Di Marco Barros et al., 2016, Cell 167, 203-218). In brief, 9 mm×9 mm×1.5 mm Cellfoam matrices (Cytomatrix PTY Ltd; Victoria, Australia) were autoclaved and incubated in 100 μg/mL rat tail collagen I (BD Biosciences; San Jose, Calif.) in PBS for 30 min at 37° C. and washed twice in PBS. Biopsies were washed for 20 min in 5 mL wash medium (RPMI 1640 10% FCS, β-mercaptoethanol, penicillin (500U/ml), streptomycin ([…]), metronidazole (5 mg/ml), gentamicin ([…], Sigma-Aldrich) and amphotericin 12.5 mg/ml (Thermo Fisher Scientific; Waltham, Mass.)). One endoscopic biopsy was placed on top of each matrix, which was then inverted and pressure was applied to crush the biopsy into the matrix. The matrices were placed into a 24-well plate (1 per well) and covered with 2 mL RPMI 1640 (supplemented with 10% FCS, β-mercaptoethanol, penicillin (100 U/ml), streptomycin ([…]), metronidazole (1 mg/ml), gentamicin (20 mg/ml), amphotericin (2.5 mg/ml)) and IL-2 (100U/mL, Novartis Pharmaceutical UK; London, United Kingdom). Cells were harvested and residual biopsy and empty wells were washed with PBS 0.02 mM HEPES. The cell suspension was passed through a […] nylon cell strainer, centrifuged at 400 g for 5 minutes.
After LPMC isolation, a cell count was performed using a hemochromocytometer and 200,000 cells were placed in each well of a 96 well round bottomed plate until the supply was exhausted. Complete media either with or without IL23 (10 ng/ml Biolegend; San Diego, Calif.) was added to each well to a total volume of 200 μl and incubated at 37° C. at 5% CO2 for 4 hours. Then cells from wells treated in the same condition were combined in a 1.5 ml RNAse free Eppendorf. The Eppendorfs were centrifuged at 1200 g for 5 minutes, the supernatant was removed and 800 μl Qiazol (Qiagen, Germany) added and mechanically homogenized using a needle and syringe.
as §1
Library preparation and sequencing: A total amount of 3 μg RNA per sample was used as input material for the RNA sample preparations. Sequencing libraries were generated using NEBNextR Ultra™ RNA Library Prep Kit for IlluminaR (NEB, Ipswich, Mass.) following manufacturer's recommendations and index codes were added to attribute sequences to each sample. Briefly, mRNA was purified from total RNA using poly-T oligo-attached magnetic beads. Fragmentation was carried out using divalent cations under elevated temperature in NEBNext First Strand Synthesis Reaction Buffer (5×). First strand cDNA was synthesized using random hexamer primer and M-MuLV Reverse Transcriptase (RNase H-). Second strand cDNA synthesis was subsequently performed using DNA Polymerase I and RNase H. Remaining overhangs were converted into blunt ends via exonuclease/polymerase activities. After adenylation of 3′ ends of DNA fragments, NEBNext Adaptor with hairpin loop structure were ligated to prepare for hybridization. […]

[2] = tested on: patients with moderate-to-severe UC; assay: UNIFI phase 3 trial: ustekinumab induction in UC patients stratified by baseline IL22 enrichment score; format: in vivo, human; conditions: week 8
From the text: Gene Set Variation Analysis: To test the activation of each of the cytokine regulated transcriptional programs we used gene set variation analysis (GSVA) (56) to probe whole transcriptional profiles of previously reposited datasets and the dataset generated in the context of the ustekinumab and golimumab trials programs.
UNIFI trial programme: The UNIFI trial was a randomized placebo-controlled phase 3 clinical trial evaluating the efficacy and safety of ustekinumab (NCT02407236) and has already been reported (43). In this study, for the first time, transcriptional data from biopsies were reported, which were correlated to clinical, endoscopic and biomarker data available from the UNIFI cohort. Colonic biopsies were sampled at defined time points after institution of treatment in a subset of patients and were immediately transferred to RNALater (Qiagen) and stored at −80° C. prior to RNA extraction. Whole genome transcriptomics were performed on the Affymetrix HG U133 PM array. Clinical data was recorded prospectively according to the trial protocol. Outcomes reported include: clinical remission (defined as a total Mayo score of ≤2 and no subscore >1) and deep remission (which required both histologic improvement (defined as neutrophil infiltration in <5% of crypts, no crypt destruction, and no erosions, ulcerations, or granulation tissue) and endoscopic improvement) at week 8. Analysis presented is based on all patients receiving ustekinumab regardless of dose (130 mg and 6 mg/kg).
Next, it was determined whether core transcripts regulated by the IL23/IL22 axis were differentially expressed in diseased tissue of UC patients. Gene Set Variation Analysis (GSVA) is an algorithm which tests whether entire transcriptional programmes are enriched in complex and heterogeneous samples. […] Endoscopically acquired colonic biopsies were sampled from the sigmoid colon of patients with moderate-to-severe UC (n=550) enrolled to the UNIFI phase III clinical trial, a randomized, placebo controlled trial evaluating the efficacy of ustekinumab, a monoclonal antibody (mAb) that blocks the p40 subunit shared by the human IL-12 and IL-23 cytokines. […] These findings were replicated in 2 additional independent cohorts of UC patients where transcriptomic data was available in publicly accessible repositories (GSE50971 and GSE16879, FIG. 4A). […] Consistent with IL23 being an important driver of IL22, there was a significant correlation between the enrichment scores for IL23 and IL22 in colonic biopsies.
Although IL23 and IL22 responsive transcriptional programs were enriched at population level in UC patients, there was considerable variation in magnitude of enrichment. Since it was unlikely that this variation was being driven by differences in disease severity (all patients in the UNIFI trial program had moderate to severe UC, with Mayo endoscopy subscores of either 2 or 3), the possibility that this molecular heterogeneity might represent important differences in underlying disease immunobiology was considered. If molecular stratification of UC patients according to the magnitude of IL23/IL22 responsive transcript enrichment was biologically and/or clinically meaningful, it was reasoned that UC patients with different degrees of enrichment would experience different outcomes and follow different trajectories. To test this hypothesis, patients from the UNIFI trial program were stratified according to IL23 or IL22 enrichment scores (in colonic biopsies sampled immediately prior initiation with ustekinumab), and whether these differences in molecular phenotype impacted treatment response were evaluated. Enrichment scores in colonic tissue, for both cytokines, could differentiate responders and non-responders to ustekinumab induction therapy (including patients on 130 mg and 6 mg/kg dose), although, the IL22-responsive transcriptional program was especially discriminatory (FIGS. 3D-3F and FIGS. 5A-5D). […]

[3] = patients with low IL22 enrichment scores (ES<0)

Molecule: IL13: human recombinant IL13 (10 ng/mL) used on human colonoids
- regulation of chemokine expression (human colonoids): strongly upregulate both eosinophil-active chemokines CCL24 and CCL26

Molecule: IL23: recombinant IL23 (10 ng/ml, Biolegend) used to stimulate LPMC
- GZMB transcript fold change ([1]; IL23 10 ng/ml, 4 hours): 1.40
- IFNG transcript fold change ([1]; IL23 10 ng/ml, 4 hours): 1.77
- IL17A transcript fold change ([1]; IL23 10 ng/ml, 4 hours): 1.24
- IL17F transcript fold change ([1]; IL23 10 ng/ml, 4 hours): 1.70
- IL22 transcript fold change ([1]; IL23 10 ng/ml, 4 hours): 1.69
- TNFRSF8 transcript fold change ([1]; IL23 10 ng/ml, 4 hours): 1.41
- differentially expressed transcripts ([1]; filtered at P<0.01): 222 transcripts
- downregulated transcripts ([1]; filtered at P<0.01): 110
- upregulated transcripts ([1]; filtered at P<0.01): 112

Molecule: ustekinumab: monoclonal antibody blocking the p40 subunit shared by IL-12 and IL-23; heavy chain SEQ ID NO:10, light chain SEQ ID NO:11
- outcomes in UC patients with high IL22 enrichment scores ([2]; high IL22 enrichment scores): broadly comparable to placebo treated patients
- clinical remission [2, 3]: 26.6%
- deep remission (clinical, endoscopic and histologic remission) [2, 3]: 22.7%
- mucosal healing [2, 3]: 25.9%
- deep remission (clinical, endoscopic and histologic remission) ([2]; unstratified UC patients): 11.7%
- mucosal healing ([2]; unstratified UC patients): 15.6%
- clinical remission ([2]; unstratified UC patients, ustekinumab induction 130 mg and 6 mg/kg pooled): 13.4%

B1: IFNγ: human recombinant IFNγ (20 ng/mL) used on human colonoids (protein, UniProt P01579 24-161, looked up)
Interferon gamma: QDPYVKEAENLKKYFNAGHSDVADNGTLFLGILKNWKEESDRKIMQSQIVSFYFKLFKNFKDDQSIQKSVETIKEDMNVKFFNSNKKKRDDFEKLTNYSVTDLNVQRKAIHELIQVMAELSPAAKTGKRKRSQMLFRG
- regulation of chemokine expression (human colonoids): strongly upregulated CXCL9 and CXCL10
